From patent US8669072B2, “Oxadiazoline ligands for modulating the expression of exogenous genes via an ecdysone receptor complex” (Intrexon Corporation, priority 2003, dated 2014)
pEC50: −log10 of the molar value. Like-named read-outs stand apart in the source and are kept apart here.

How the values were obtained:
Bombyx mori EcR (VBE) = biological target: T1, Bombyx mori EcR (VBE) (Bombyx mori, UniProt P49881); assay: Z3 assay: β-galactosidase reporter gene induction in HEK-293 clone Z3 (CVBE / 6XEcRE LacZ); type: cell-based; settings: for fold induction at 33 µM: read-out: Fold Induction Average, Z3 assay
T1 construct: expressed in transfected cells; host or cells: Human HEK-293 cells, retrovirally infected, clone Z3
T1 sequence (P49881 86-606 limits assumed): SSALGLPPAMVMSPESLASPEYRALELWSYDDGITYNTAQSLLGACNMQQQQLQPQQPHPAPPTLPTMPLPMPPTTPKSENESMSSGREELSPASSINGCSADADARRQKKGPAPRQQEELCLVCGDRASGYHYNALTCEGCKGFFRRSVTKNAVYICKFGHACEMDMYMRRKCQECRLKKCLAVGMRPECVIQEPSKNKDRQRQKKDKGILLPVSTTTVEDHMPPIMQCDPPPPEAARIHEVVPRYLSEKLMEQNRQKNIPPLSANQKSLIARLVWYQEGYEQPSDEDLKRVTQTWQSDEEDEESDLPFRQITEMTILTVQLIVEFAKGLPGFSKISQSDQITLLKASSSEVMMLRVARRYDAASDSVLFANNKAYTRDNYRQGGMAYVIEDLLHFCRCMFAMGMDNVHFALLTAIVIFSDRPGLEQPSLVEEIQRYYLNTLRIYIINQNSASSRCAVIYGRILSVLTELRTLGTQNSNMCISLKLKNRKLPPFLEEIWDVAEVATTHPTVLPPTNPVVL
T1 sequence (P19793 1-462 partner): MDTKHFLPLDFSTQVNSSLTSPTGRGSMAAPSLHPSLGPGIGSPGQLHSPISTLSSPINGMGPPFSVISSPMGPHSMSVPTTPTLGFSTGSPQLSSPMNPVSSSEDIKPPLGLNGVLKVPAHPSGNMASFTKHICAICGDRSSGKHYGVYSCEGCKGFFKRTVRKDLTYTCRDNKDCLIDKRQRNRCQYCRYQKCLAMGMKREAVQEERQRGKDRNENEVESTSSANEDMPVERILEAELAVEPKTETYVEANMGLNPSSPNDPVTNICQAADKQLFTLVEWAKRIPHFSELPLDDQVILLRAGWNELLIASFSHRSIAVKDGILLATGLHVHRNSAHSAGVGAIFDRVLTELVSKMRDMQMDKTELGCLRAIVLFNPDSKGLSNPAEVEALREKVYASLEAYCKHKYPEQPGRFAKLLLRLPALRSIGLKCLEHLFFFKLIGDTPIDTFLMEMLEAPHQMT

WFN (white fly) = assay: Insect toxicity contact bioassay, WFN; type: in vivo
Experimental: (§1) The compound to be evaluated was dissolved in an appropriate solvent, usually a mix of acetone, methanol, and water. Test solutions were made by serial dilution of a stock test solution with acetone, methanol, and water. Initial evaluations were made at one or more concentrations on one or more of the following insects:
(§2) Contact bioassays (green peach aphid, two-spotted spider mite, white fly) were conducted by applying a solution of the test compound to the inside surface of a Petri dish. The solution was allowed to air-dry, then each dish was infested and the larvae from each treatment were transferred to a bioassay tray. The trays were held for one to seven days, and the mortality rating was determined for each treatment.

Tobacco Budworm = assay: Insect toxicity bioassay, TBW; type: in vivo
Experimental: as §1
(§3) Feeding bioassays were conducted in bioassay trays containing insect diet. Treatments were made by applying 50 μL of test solution to the surface of the diet in each of 5 wells. After the test solution dried, each well was infested with a single neonate larva. The trays were held for six days and then the mortality rating was determined for each treatment.
Some of the tobacco budworm tests were conducted as follows. A test solution containing 600 ppm was made by dissolving a compound of the invention in a 1:1 acetone:methanol solution, then adding water to give a 5:5:90 acetone:methanol:water solution, and finally a surfactant was added at an equivalent of 7.37 g of surfactant per 100 L of test solution (1 ounce of surfactant per 100 gallons of test solution). Appropriate dilutions were prepared in water from the 600 ppm solution. A detached cotton leaf, Gossypium hirsutum was placed on moistened filter paper in a Petri dish (100×20 mms). The leaf was sprayed with the test solution using a rotating turntable sprayer and allowed to dry. The dish was infested with 10 first instar larvae of the tobacco budworm and covered with the lid. If the larvae were alive two days after treatment, fresh untreated cotton leaves were added. All treatments were maintained at 23.9-26.7° C. (75-80° F.) under fluorescent light in a well-ventilated room. Percent mortality was determined at four days after treatment.

Beet Armyworm = assay: Insect toxicity feeding bioassay, BAW; type: in vivo
Experimental: as §1, §3

[1] = test system: MTA (two-spotted spider mite); assay: Insect toxicity contact bioassay, MTA; type: in vivo
Experimental: as §1, §2

Cabbage Looper = assay: Insect toxicity feeding bioassay, CL; type: in vivo
Experimental: as §1, §3

[2] = biological target: T2, GAL4 DBD (1-147)-CfEcR(DEF)/VP16AD-βRXREF-LmUSPEF (Choristoneura fumiferana, UniProt O77240); assay: cell-based; settings: for fold induction at 33.3 µM: 48 h, read-out: Fold Induction Average, 27-63 assay; for Rel Max FI, 27-63 assay: maximum fold induction relative to that of GS-E ligand
T2 construct: The wild-type D, E, and F domains from spruce budworm Choristoneura fumiferana EcR (“CfEcR-DEF”)
Experimental: Stably transfected cells were selected by Zeocin resistance. Individually isolated CHO cell clones were transiently transfected with a GAL4 RE-luciferase reporter (pFR Luc). 27-63 clone was selected using Hygromycin.
Cells were trypsinized and diluted to a concentration of 2.5×10^4 cells mL. 100 μL of cell suspension was placed in each well of a 96 well plate and incubated at 37° C. under 5% CO2 for 24 h. Ligand stock solutions were prepared in DMSO and diluted 300 fold for all treatments.
Luciferase reporter gene expression was measured 48 h after cell treatment using Bright-Glo™ Luciferase Assay System from Promega (E2650). Luminescence was detected at room temperature using a Dynex MLX microtiter plate luminometer.
Each assay was conducted in two separate wells, and the two values were averaged. Fold inductions were calculated by dividing relative light units (“RLU”) in ligand treated cells with RLU in DMSO treated cells. EC50s were calculated from dose response data using a three-parameter logistic model.

[3] = biological target: T3, GAL4 DBD-CfEcR(DEF)/VP16AD-MmRXRE (Choristoneura fumiferana, UniProt O77240); assay: 13B3 assay: luciferase reporter gene induction in stable CHO clone 13B3; type: cell-based; settings: 48 h; for fold induction at 33.3 µM: read-out: Fold Induction Average, 13B3 assay
T3 construct: The wild-type D, E, and F domains from spruce budworm Choristoneura fumiferana EcR (“CfEcR-DEF”)
How it was run: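 Stable CHO clone 13B3 co-expressing GAL4 DBD-CfEcR(DEF) and VP16AD-MmRXRE with a GAL4 RE-luciferase reporter; ligands from DMSO stocks diluted 300-fold. Luciferase read by luminescence 48 h after treatment, duplicate wells averaged. Fold induction = RLU treated/RLU DMSO; EC50 from three-parameter logistic fit.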

[4] = biological target: CfEcR (CDEF)/CfUSP, GST fusion protein (Choristoneura fumiferana, UniProt O77240); assay: CfEcR (CDEF)/CfUSP GST fusion protein assay; type: binding; settings: GST fusion protein; read-out: CfEcR EC50
Chain of CfEcR (CDEF)/CfUSP, GST fusion protein (O77240 entry or part of it): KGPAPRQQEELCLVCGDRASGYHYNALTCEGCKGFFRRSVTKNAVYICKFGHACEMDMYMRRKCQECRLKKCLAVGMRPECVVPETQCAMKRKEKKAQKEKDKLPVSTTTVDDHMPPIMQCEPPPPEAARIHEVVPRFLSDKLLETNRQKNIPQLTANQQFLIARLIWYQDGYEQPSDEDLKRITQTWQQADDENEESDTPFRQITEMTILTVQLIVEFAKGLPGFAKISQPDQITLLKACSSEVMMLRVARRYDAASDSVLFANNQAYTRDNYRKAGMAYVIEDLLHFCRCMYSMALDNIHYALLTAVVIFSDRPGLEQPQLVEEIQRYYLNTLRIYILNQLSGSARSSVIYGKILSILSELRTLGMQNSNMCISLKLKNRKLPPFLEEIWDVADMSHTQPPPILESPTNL
Chain of CfEcR (CDEF)/CfUSP, GST fusion protein (O76202 whole entry, further chain, the tested form may be a part): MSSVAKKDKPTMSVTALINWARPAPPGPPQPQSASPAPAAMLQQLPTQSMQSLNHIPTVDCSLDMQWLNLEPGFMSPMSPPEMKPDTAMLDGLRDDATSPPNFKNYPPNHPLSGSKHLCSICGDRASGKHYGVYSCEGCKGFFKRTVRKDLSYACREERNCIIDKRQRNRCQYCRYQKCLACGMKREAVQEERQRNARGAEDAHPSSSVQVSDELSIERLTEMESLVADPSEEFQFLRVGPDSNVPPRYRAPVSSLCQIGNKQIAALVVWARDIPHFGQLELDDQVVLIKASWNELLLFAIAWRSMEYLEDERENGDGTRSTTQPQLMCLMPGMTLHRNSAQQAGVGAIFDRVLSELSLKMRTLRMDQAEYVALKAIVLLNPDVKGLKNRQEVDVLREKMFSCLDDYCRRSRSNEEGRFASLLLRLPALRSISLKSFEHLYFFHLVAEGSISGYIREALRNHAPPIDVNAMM

[5] = 33 μM ligand, 48 h, RLU relative to DMSO
[6] = 33/33.3 μM ligand, RLU relative to DMSO

| SMILES | Insect Toxicity % control @ 150 ppm, WFN (WFN (white fly)) | Insect Toxicity % control @ 150 ppm, TBW (Tobacco Budworm) | Insect Toxicity % control @ 150 ppm, BAW (Beet Armyworm) | Insect Toxicity % control @ 150 ppm, MTA [1] | Insect Toxicity % control @ 150 ppm, CL (Cabbage Looper) | pEC50 [2] | fold induction at 33.3 µM [2] | Rel Max FI, 27-63 assay [2] | other results |
| --- | --- | --- | --- | --- | --- | --- | --- | --- | --- |
| CC1(C)ON=C(c2cccc(C(F)(F)F)c2)N1NC(=O)Cc1ccccc1 [RG-120021] | 0% @ 150 | 0% @ 150 | 100% @ 150 | 51% @ 150 | 0% @ 150 |  |  |  | Fold Induction Average, Z3 assay (Bombyx mori EcR (VBE); [5]): 0.7 |
| CCc1c(OC)cccc1C(=O)NN1C(c2ccc(Cl)cc2)=NOC1(C)C [RG-120099] | 0% @ 150 | 0% @ 150 | 100% @ 150 | 0% @ 150 | 40% @ 150 | ~4.70 | 1330 | 0.64 | fold induction at 33 µM (Bombyx mori EcR (VBE); HEK293, 48 h): 0.2 |
| CCc1ccc(C(=O)NN2C(c3ccccc3OC)=NOC2(C)C)cc1 [RG-120026] | 0% @ 150 | 0% @ 150 | 100% @ 150 | 40% @ 150 | 0% @ 150 | < 4.48 | 8.5 | 0 | fold induction at 33 µM (Bombyx mori EcR (VBE); HEK293, 48 h): 41.1; fold induction at 33.3 µM [3]: 0.9 |
| CCc1c(OC)cccc1C(=O)NN1C(c2ccccc2)=NOC12CCCC2 [RG-120092] |  |  |  |  |  | 5.15 | 2190 | 1.15 | Insect Toxicity LC50, WFN (WFN (white fly); in vivo): >150 ppm; Insect Toxicity LC50, TBW (Tobacco Budworm; in vivo): 98 ppm; Insect Toxicity LC50, BAW (Beet Armyworm; in vivo): 47 ppm; Insect Toxicity LC50, MTA ([1]; in vivo): >150 ppm; Insect Toxicity LC50, CL (Cabbage Looper; in vivo): 13 ppm |
| CCC1(C)ON=C(c2cc(C)cc(C)c2)N1NC(=O)c1ccccc1 (centres unmarked) [RG-120039] |  |  |  |  |  |  |  |  | pEC50 [4]: 6.69 |
| CCC1(C)ON=C(c2cc(C)cc(C)c2)N1NC(=O)Nc1ccccc1 (centres unmarked) [RG-120051] |  |  |  |  |  |  |  |  | pEC50 [4]: 6.83 |
| CCc1ccc(C(=O)NN2C(c3ccccc3)=NOC2(C)CC)cc1 (centres unmarked) [RG-120137] |  |  |  |  |  | < 4.48 | 4.6 | 0 | fold induction at 33 µM (Bombyx mori EcR (VBE); HEK293, 33 μM ligand, 48 h, RLU relative to DMSO): 59; fold induction at 33.3 µM [3, 6]: 5.3 |
| Cc1cccc(C(=O)NN2C(c3cc(C)cc(C)c3)=NOC2(C)C)c1 [RG-120077] | 0% @ 150 | 0% @ 150 | 50% @ 150 | 0% @ 150 | 100% @ 150 |  |  |  | Fold Induction Average, Z3 assay (Bombyx mori EcR (VBE); [5]): 14.6; Fold Induction Average, 13B3 assay [3, 6]: 0.4 |
